Consider six molecules from ChEMBL document CHEMBL3585310, “Synthesis and evaluation of artesunateindoloquinoline hybrids as antimalarial drug candidates” (Medchemcomm, 2014).

pIC50: −log10 of the molar value.

For the first data set, the system named is Plasmodium falciparum. As to the kind of experiment: Resistance index, ratio of IC50 for chloroquine-resistant Plasmodium falciparum K1 to IC50 chloroquine-sensitive Plasmodium falciparum NF54. The class given is functional.
Details: not given
Regarding `C[C@H]1[C@H](OC(=O)CCC(=O)NCC(C)(C)CNc2c3c4ccccc4nc-3n(C)c3ccc(Cl)cc23)O[C@@H]2O[C@@]3(C)CC[C@H]4CCC[C@@H]1[C@]42OO3`, the “Ratio IC50” value worked out at 0.27.

With `COC(=O)c1ccc2c(c1)c(NCC(C)(C)CNC(=O)CCC(=O)O[C@@H]1O[C@@H]3O[C@@]4(C)CC[C@H]5CCC[C@@H]([C@H]1C)[C@]53OO4)c1c3ccccc3nc-1n2C`, the “Ratio IC50” value came to 0.36.

`C[C@H]1[C@H](OC(=O)CCC(=O)NCC(C)(C)CNc2c3c4ccccc4nc-3n(C)c3ccc(Br)cc23)O[C@@H]2O[C@@]3(C)CC[C@H]4CCC[C@@H]1[C@]42OO3`: the “Ratio IC50” value is given as 0.3.

For `C[C@H]1[C@H](OC(=O)CCC(=O)NCCCNc2c3c4ccccc4nc-3n(C)c3ccccc23)O[C@@H]2O[C@@]3(C)CC[C@H]4CCC[C@@H]1[C@]42OO3`, the “Ratio IC50” value is given as 0.93.

As for `COC(=O)c1ccc2c(c1)c(NCCCNC(=O)CCC(=O)O[C@@H]1O[C@@H]3O[C@@]4(C)CC[C@H]5CCC[C@@H]([C@H]1C)[C@]53OO4)c1c3ccccc3nc-1n2C`, the “Ratio IC50” value worked out at 0.35.

Turning to `NCCCNc1nc2ccccc2c2[nH]c3ccccc3c12`, the “Ratio IC50” value came out at 6.

Test system in a further data set: not listed separately
As to the kind of experiment: Selectivity index, ratio of IC50 for rat L6 cells to IC50 for chloroquine-resistant Plasmodium falciparum K1. The class given is toxicity, cell-based. As to conditions: L6 cells (cytotoxicity) versus Plasmodium falciparum K1, read-out: Ratio IC50.
As to `C[C@H]1[C@H](OC(=O)CCC(=O)NCC(C)(C)CNc2c3c4ccccc4nc-3n(C)c3ccc(Cl)cc23)O[C@@H]2O[C@@]3(C)CC[C@H]4CCC[C@@H]1[C@]42OO3`, the selectivity ratio amounted to 3130.

For the molecule `COC(=O)c1ccc2c(c1)c(NCC(C)(C)CNC(=O)CCC(=O)O[C@@H]1O[C@@H]3O[C@@]4(C)CC[C@H]5CCC[C@@H]([C@H]1C)[C@]53OO4)c1c3ccccc3nc-1n2C`, the selectivity ratio was 604.

As to `C[C@H]1[C@H](OC(=O)CCC(=O)NCC(C)(C)CNc2c3c4ccccc4nc-3n(C)c3ccc(Br)cc23)O[C@@H]2O[C@@]3(C)CC[C@H]4CCC[C@@H]1[C@]42OO3`, the selectivity ratio is 1040.

`C[C@H]1[C@H](OC(=O)CCC(=O)NCCCNc2c3c4ccccc4nc-3n(C)c3ccccc23)O[C@@H]2O[C@@]3(C)CC[C@H]4CCC[C@@H]1[C@]42OO3`: the selectivity ratio stood at 3640.

Take `COC(=O)c1ccc2c(c1)c(NCCCNC(=O)CCC(=O)O[C@@H]1O[C@@H]3O[C@@]4(C)CC[C@H]5CCC[C@@H]([C@H]1C)[C@]53OO4)c1c3ccccc3nc-1n2C`: the selectivity ratio is 3720.

Consider `NCCCNc1nc2ccccc2c2[nH]c3ccccc3c12`, for which the selectivity ratio is 7.6.

The next data set deals with Plasmodium falciparum. Put plainly: Antiplasmodial activity against chloroquine-sensitive Plasmodium falciparum NF54.
Details: not given
Format: functional, organism-based.
For `C[C@H]1[C@H](OC(=O)CCC(=O)NCC(C)(C)CNc2c3c4ccccc4nc-3n(C)c3ccc(Cl)cc23)O[C@@H]2O[C@@]3(C)CC[C@H]4CCC[C@@H]1[C@]42OO3`, the pIC50 (as a rule, the negative decadic logarithm of the IC50, by convention in mol/L) was 8.82.

`COC(=O)c1ccc2c(c1)c(NCC(C)(C)CNC(=O)CCC(=O)O[C@@H]1O[C@@H]3O[C@@]4(C)CC[C@H]5CCC[C@@H]([C@H]1C)[C@]53OO4)c1c3ccccc3nc-1n2C` had a pIC50 of 8.50.

Consider `C[C@H]1[C@H](OC(=O)CCC(=O)NCC(C)(C)CNc2c3c4ccccc4nc-3n(C)c3ccc(Br)cc23)O[C@@H]2O[C@@]3(C)CC[C@H]4CCC[C@@H]1[C@]42OO3`, for which the pIC50 is 8.49.

`C[C@H]1[C@H](OC(=O)CCC(=O)NCCCNc2c3c4ccccc4nc-3n(C)c3ccccc23)O[C@@H]2O[C@@]3(C)CC[C@H]4CCC[C@@H]1[C@]42OO3`: the pIC50 is 9.35.

In the case of `COC(=O)c1ccc2c(c1)c(NCCCNC(=O)CCC(=O)O[C@@H]1O[C@@H]3O[C@@]4(C)CC[C@H]5CCC[C@@H]([C@H]1C)[C@]53OO4)c1c3ccccc3nc-1n2C`, the pIC50 is 8.54.

Test system in another data set: not listed separately
As to the kind of experiment: Selectivity index, ratio of IC50 for rat L6 cells to IC50 for chloroquine-sensitive Plasmodium falciparum NF54. The class given is toxicity, cell-based. As to conditions: L6 cells (cytotoxicity) versus Plasmodium falciparum NF54, read-out: Ratio IC50.
For the molecule `C[C@H]1[C@H](OC(=O)CCC(=O)NCC(C)(C)CNc2c3c4ccccc4nc-3n(C)c3ccc(Cl)cc23)O[C@@H]2O[C@@]3(C)CC[C@H]4CCC[C@@H]1[C@]42OO3`, the selectivity ratio came out at 856.

On to `COC(=O)c1ccc2c(c1)c(NCC(C)(C)CNC(=O)CCC(=O)O[C@@H]1O[C@@H]3O[C@@]4(C)CC[C@H]5CCC[C@@H]([C@H]1C)[C@]53OO4)c1c3ccccc3nc-1n2C`, for which the selectivity ratio is 219.

As for `C[C@H]1[C@H](OC(=O)CCC(=O)NCC(C)(C)CNc2c3c4ccccc4nc-3n(C)c3ccc(Br)cc23)O[C@@H]2O[C@@]3(C)CC[C@H]4CCC[C@@H]1[C@]42OO3`, the selectivity ratio is 309.

`C[C@H]1[C@H](OC(=O)CCC(=O)NCCCNc2c3c4ccccc4nc-3n(C)c3ccccc23)O[C@@H]2O[C@@]3(C)CC[C@H]4CCC[C@@H]1[C@]42OO3`: the selectivity ratio is 3400.

Turning to `COC(=O)c1ccc2c(c1)c(NCCCNC(=O)CCC(=O)O[C@@H]1O[C@@H]3O[C@@]4(C)CC[C@H]5CCC[C@@H]([C@H]1C)[C@]53OO4)c1c3ccccc3nc-1n2C`, the selectivity ratio was 1290.

As for `NCCCNc1nc2ccccc2c2[nH]c3ccccc3c12`, the selectivity ratio stood at 45.8.

The subject of a further data set is Plasmodium berghei. As to the kind of experiment: Antimalarial activity against Plasmodium berghei infected in NMRI mouse assessed as survival at 10 mg/kg, ip for 4 consecutive days by FACS analysis. The class given is functional.
Details: not given
For `C[C@H]1[C@H](OC(=O)CCC(=O)NCCCNc2c3c4ccccc4nc-3n(C)c3ccccc23)O[C@@H]2O[C@@]3(C)CC[C@H]4CCC[C@@H]1[C@]42OO3`, the MSD worked out at 7.7 days.

The next data set has as its system L6. Put plainly: Cytotoxicity against rat L6 cells. Format: cell-based.
Details: not given
With `C[C@H]1[C@H](OC(=O)CCC(=O)NCC(C)(C)CNc2c3c4ccccc4nc-3n(C)c3ccc(Cl)cc23)O[C@@H]2O[C@@]3(C)CC[C@H]4CCC[C@@H]1[C@]42OO3`, the pIC50 was 5.89.

`COC(=O)c1ccc2c(c1)c(NCC(C)(C)CNC(=O)CCC(=O)O[C@@H]1O[C@@H]3O[C@@]4(C)CC[C@H]5CCC[C@@H]([C@H]1C)[C@]53OO4)c1c3ccccc3nc-1n2C` showed a pIC50 of 6.16.

In turn, `C[C@H]1[C@H](OC(=O)CCC(=O)NCC(C)(C)CNc2c3c4ccccc4nc-3n(C)c3ccc(Br)cc23)O[C@@H]2O[C@@]3(C)CC[C@H]4CCC[C@@H]1[C@]42OO3` gave a pIC50 of 6.00.

In the case of `C[C@H]1[C@H](OC(=O)CCC(=O)NCCCNc2c3c4ccccc4nc-3n(C)c3ccccc23)O[C@@H]2O[C@@]3(C)CC[C@H]4CCC[C@@H]1[C@]42OO3`, the pIC50 was 5.82.

Molecule `COC(=O)c1ccc2c(c1)c(NCCCNC(=O)CCC(=O)O[C@@H]1O[C@@H]3O[C@@]4(C)CC[C@H]5CCC[C@@H]([C@H]1C)[C@]53OO4)c1c3ccccc3nc-1n2C` showed a pIC50 of 5.43.

A further data set concerns Plasmodium falciparum. As to the kind of experiment: Antiplasmodial activity against chloroquine-resistant Plasmodium falciparum K1.
Details: not given
Format: functional, organism-based.
With `C[C@H]1[C@H](OC(=O)CCC(=O)NCC(C)(C)CNc2c3c4ccccc4nc-3n(C)c3ccc(Cl)cc23)O[C@@H]2O[C@@]3(C)CC[C@H]4CCC[C@@H]1[C@]42OO3`, the pIC50 is 9.39.

In turn, `COC(=O)c1ccc2c(c1)c(NCC(C)(C)CNC(=O)CCC(=O)O[C@@H]1O[C@@H]3O[C@@]4(C)CC[C@H]5CCC[C@@H]([C@H]1C)[C@]53OO4)c1c3ccccc3nc-1n2C` had a pIC50 of 8.94.

In turn, `C[C@H]1[C@H](OC(=O)CCC(=O)NCC(C)(C)CNc2c3c4ccccc4nc-3n(C)c3ccc(Br)cc23)O[C@@H]2O[C@@]3(C)CC[C@H]4CCC[C@@H]1[C@]42OO3` gave a pIC50 of 9.02.

In turn, `C[C@H]1[C@H](OC(=O)CCC(=O)NCCCNc2c3c4ccccc4nc-3n(C)c3ccccc23)O[C@@H]2O[C@@]3(C)CC[C@H]4CCC[C@@H]1[C@]42OO3` had a pIC50 of 9.38.

`COC(=O)c1ccc2c(c1)c(NCCCNC(=O)CCC(=O)O[C@@H]1O[C@@H]3O[C@@]4(C)CC[C@H]5CCC[C@@H]([C@H]1C)[C@]53OO4)c1c3ccccc3nc-1n2C` gave a pIC50 of 9.00.

The target of another data set is Heme. Put plainly: Binding affinity to heme assessed as inhibition of beta-hematin formation by NP40 detergent based assay.
Details: not given
For `C[C@H]1[C@H](OC(=O)CCC(=O)NCC(C)(C)CNc2c3c4ccccc4nc-3n(C)c3ccc(Cl)cc23)O[C@@H]2O[C@@]3(C)CC[C@H]4CCC[C@@H]1[C@]42OO3`, the pIC50 is 4.42.

Regarding `COC(=O)c1ccc2c(c1)c(NCC(C)(C)CNC(=O)CCC(=O)O[C@@H]1O[C@@H]3O[C@@]4(C)CC[C@H]5CCC[C@@H]([C@H]1C)[C@]53OO4)c1c3ccccc3nc-1n2C`, the pIC50 was 4.59.

On to `C[C@H]1[C@H](OC(=O)CCC(=O)NCC(C)(C)CNc2c3c4ccccc4nc-3n(C)c3ccc(Br)cc23)O[C@@H]2O[C@@]3(C)CC[C@H]4CCC[C@@H]1[C@]42OO3`, for which the pIC50 is 4.54.

Consider `C[C@H]1[C@H](OC(=O)CCC(=O)NCCCNc2c3c4ccccc4nc-3n(C)c3ccccc23)O[C@@H]2O[C@@]3(C)CC[C@H]4CCC[C@@H]1[C@]42OO3`, for which the pIC50 was 3.65.

With `COC(=O)c1ccc2c(c1)c(NCCCNC(=O)CCC(=O)O[C@@H]1O[C@@H]3O[C@@]4(C)CC[C@H]5CCC[C@@H]([C@H]1C)[C@]53OO4)c1c3ccccc3nc-1n2C`, the pIC50 was 4.53.

`NCCCNc1nc2ccccc2c2[nH]c3ccccc3c12`: the pIC50 is 3.20.

A further data set relates to Plasmodium berghei. Put plainly: Antimalarial activity against Plasmodium berghei infected in NMRI mouse at 10 mg/kg, ip for 4 consecutive days by FACS analysis. Format: functional.
Details: not given
`C[C@H]1[C@H](OC(=O)CCC(=O)NCCCNc2c3c4ccccc4nc-3n(C)c3ccccc23)O[C@@H]2O[C@@]3(C)CC[C@H]4CCC[C@@H]1[C@]42OO3` registered an Activity of 89.6%.
